Results published in patent publication US20150011569A1, “NOVEL P13K p110 INHIBITORS AND METHODS OF USE THEREOF” (PHILADELPHIA HEALTH & EDUCATION CORPORATION d/b/a Drexel …, priority 2011, published 2015).

Experiments:
[1] = molecular target: T1, PI3K p110α (Homo sapiens, UniProt P42336); test: PI3K isoform inhibition in vitro, p110α; type: biochemical; conditions: class I PI3K isoform α
T1 construct: purchased Reaction Biology Corporation (RBC) Malvern, Pa
Text: (§1) A PI3K assay can be used to evaluate the activity of the prototype molecule. Reaction Biology Corporation (RBC) Malvern, Pa. offers Class I PI3Ks (PI3Kα, PI3Kβ, PI3Kγ, and PI3Kδ). The PIP3 product is detected by displacement of biotin-PIP3 from an energy transfer complex consisting of Europium labeled anti-GST monoclonal antibody, a GST-tagged pleckstrin homology (PH) domain, biotinylated PIP3 and Streptavidin-Allophycocyanin (APC). Excitation of Europium in the complex results in an energy transfer to the APC and a fluorescent emission at 665 nm. The PIP3 product formed displaces biotin-PIP3 from the complex resulting in a loss of energy transfer and thus a decrease in signal.

[2] = molecular target: T2, PI3K p110γ (Homo sapiens, UniProt P48736); test: PI3K isoform inhibition in vitro, p110γ; type: biochemical; conditions: class I PI3K isoform γ
T2 construct: purchased Reaction Biology Corporation (RBC) Malvern, Pa
T2 sequence (P48736 whole entry, canonical isoform): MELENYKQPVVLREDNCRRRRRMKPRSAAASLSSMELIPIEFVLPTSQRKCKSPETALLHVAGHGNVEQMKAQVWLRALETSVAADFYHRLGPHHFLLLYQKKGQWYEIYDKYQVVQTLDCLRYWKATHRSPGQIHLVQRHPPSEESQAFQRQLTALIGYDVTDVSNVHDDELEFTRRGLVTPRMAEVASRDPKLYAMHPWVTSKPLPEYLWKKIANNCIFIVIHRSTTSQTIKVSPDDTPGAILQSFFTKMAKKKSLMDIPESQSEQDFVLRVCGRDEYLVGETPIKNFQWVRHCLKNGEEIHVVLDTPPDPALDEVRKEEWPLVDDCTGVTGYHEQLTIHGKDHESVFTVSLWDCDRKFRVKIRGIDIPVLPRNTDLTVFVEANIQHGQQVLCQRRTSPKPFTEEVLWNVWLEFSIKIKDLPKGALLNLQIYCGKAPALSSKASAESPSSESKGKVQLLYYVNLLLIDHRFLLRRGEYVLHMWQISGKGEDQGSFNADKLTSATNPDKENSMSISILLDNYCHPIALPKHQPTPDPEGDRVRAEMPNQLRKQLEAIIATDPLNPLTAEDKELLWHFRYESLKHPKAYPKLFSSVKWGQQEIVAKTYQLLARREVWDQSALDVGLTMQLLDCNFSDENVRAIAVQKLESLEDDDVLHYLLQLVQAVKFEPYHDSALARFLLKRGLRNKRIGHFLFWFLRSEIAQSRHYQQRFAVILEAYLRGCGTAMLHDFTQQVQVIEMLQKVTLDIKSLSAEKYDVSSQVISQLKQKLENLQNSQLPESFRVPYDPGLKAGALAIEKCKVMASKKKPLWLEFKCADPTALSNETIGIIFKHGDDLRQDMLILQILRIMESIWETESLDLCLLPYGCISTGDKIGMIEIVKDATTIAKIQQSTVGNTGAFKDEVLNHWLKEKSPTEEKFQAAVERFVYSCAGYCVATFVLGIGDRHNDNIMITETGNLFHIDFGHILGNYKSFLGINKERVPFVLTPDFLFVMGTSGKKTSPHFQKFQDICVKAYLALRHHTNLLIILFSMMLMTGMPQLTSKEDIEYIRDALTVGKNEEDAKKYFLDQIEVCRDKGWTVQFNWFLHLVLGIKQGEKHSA
Text: as §1

[3] = molecular target: T3, PI3K p110β (Homo sapiens, UniProt P42338); test: PI3K isoform inhibition in vitro, p110β; type: biochemical; conditions: class I PI3K isoform β
T3 construct: purchased Reaction Biology Corporation (RBC) Malvern, Pa
T3 sequence (P42338 whole entry, canonical isoform): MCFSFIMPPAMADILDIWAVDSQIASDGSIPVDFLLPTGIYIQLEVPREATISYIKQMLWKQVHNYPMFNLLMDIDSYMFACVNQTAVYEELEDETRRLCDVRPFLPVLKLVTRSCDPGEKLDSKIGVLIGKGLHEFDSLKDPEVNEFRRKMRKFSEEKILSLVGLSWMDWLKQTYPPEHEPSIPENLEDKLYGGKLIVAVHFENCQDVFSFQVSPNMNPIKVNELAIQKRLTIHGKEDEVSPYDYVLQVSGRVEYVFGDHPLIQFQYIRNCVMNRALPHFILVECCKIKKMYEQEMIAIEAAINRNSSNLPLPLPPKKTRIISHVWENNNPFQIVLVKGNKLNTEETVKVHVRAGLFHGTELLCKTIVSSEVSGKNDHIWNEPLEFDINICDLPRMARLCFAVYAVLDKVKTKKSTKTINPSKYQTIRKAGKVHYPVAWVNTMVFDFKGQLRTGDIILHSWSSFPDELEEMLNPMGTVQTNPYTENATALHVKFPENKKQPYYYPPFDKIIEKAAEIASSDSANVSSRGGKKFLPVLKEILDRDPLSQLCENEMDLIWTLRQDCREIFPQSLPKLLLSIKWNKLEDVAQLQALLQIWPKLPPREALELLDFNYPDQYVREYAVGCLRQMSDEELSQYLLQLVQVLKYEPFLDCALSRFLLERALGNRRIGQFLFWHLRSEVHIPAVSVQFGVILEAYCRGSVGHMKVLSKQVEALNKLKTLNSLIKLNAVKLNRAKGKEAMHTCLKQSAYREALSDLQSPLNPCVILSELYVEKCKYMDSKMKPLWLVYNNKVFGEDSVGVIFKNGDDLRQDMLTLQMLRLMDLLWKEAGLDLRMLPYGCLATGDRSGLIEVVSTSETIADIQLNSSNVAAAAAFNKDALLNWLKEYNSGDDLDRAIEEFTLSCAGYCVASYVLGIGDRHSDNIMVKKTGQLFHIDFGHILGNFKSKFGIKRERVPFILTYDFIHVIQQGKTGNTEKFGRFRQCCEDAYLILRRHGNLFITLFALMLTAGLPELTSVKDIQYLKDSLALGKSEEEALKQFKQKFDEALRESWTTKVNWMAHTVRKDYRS
T3 sequence (P27986 whole entry partner, canonical isoform): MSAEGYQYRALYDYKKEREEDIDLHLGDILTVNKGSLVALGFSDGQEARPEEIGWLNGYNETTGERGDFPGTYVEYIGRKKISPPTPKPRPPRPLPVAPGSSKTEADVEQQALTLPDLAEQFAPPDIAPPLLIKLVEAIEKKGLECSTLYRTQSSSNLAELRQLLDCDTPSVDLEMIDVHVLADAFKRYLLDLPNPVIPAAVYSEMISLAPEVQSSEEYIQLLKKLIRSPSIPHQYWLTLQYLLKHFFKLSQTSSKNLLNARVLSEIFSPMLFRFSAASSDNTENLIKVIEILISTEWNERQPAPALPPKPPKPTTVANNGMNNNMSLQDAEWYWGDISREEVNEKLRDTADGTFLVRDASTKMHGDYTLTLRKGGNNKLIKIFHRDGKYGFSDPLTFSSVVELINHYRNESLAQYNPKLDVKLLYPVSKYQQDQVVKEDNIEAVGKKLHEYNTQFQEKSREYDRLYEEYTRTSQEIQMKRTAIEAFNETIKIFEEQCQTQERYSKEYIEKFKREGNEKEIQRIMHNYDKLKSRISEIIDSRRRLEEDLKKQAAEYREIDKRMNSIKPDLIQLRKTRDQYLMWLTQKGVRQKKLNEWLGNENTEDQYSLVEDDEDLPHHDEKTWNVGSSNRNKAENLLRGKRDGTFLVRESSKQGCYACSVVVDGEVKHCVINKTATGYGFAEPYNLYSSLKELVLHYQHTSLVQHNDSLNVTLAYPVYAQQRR
Text: as §1

[4] = molecular target: T4, PI3K p110δ (Homo sapiens, UniProt O00329); test: PI3K isoform inhibition in vitro, p110δ; type: biochemical; conditions: class I PI3K isoform δ
T4 construct: purchased Reaction Biology Corporation (RBC) Malvern, Pa
T4 sequence (O00329 whole entry, canonical isoform): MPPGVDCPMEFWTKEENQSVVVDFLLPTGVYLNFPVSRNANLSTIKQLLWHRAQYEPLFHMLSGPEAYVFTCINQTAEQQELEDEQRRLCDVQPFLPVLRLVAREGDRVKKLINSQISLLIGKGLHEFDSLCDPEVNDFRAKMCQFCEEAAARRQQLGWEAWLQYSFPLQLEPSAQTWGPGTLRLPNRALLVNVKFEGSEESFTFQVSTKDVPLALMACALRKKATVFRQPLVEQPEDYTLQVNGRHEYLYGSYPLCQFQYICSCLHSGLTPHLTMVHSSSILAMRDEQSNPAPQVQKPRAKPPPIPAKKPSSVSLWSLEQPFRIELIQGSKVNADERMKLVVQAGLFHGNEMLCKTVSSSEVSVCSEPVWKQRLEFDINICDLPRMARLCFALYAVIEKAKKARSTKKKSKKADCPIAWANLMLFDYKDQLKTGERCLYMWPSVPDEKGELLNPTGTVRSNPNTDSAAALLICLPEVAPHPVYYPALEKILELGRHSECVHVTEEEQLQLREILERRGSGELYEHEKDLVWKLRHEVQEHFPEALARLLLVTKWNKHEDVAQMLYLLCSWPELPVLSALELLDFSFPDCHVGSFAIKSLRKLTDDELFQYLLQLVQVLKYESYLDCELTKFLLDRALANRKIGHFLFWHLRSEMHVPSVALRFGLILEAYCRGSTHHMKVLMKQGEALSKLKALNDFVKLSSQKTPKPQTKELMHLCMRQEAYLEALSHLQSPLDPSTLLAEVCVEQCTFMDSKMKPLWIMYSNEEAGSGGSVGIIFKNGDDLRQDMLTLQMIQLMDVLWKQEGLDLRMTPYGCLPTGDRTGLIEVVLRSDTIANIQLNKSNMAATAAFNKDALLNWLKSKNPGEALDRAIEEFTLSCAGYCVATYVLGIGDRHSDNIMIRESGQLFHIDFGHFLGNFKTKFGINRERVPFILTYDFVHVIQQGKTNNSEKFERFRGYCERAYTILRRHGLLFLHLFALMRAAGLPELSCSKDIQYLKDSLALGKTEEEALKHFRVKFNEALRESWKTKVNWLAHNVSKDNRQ
T4 sequence (P27986 whole entry partner, canonical isoform): as the sequence (P27986 whole entry partner, canonical isoform) above
Text: as §1

[5] = test system: virulent influenza virus strain; set-up: species or system mice; conditions: mouse, in vivo
[6] = test system: influenza virus; test: In vitro anti-viral assay in A549 cells (plaque assay, viral mRNA); type: cell-based

T1 sequence (P42336 whole entry, canonical isoform): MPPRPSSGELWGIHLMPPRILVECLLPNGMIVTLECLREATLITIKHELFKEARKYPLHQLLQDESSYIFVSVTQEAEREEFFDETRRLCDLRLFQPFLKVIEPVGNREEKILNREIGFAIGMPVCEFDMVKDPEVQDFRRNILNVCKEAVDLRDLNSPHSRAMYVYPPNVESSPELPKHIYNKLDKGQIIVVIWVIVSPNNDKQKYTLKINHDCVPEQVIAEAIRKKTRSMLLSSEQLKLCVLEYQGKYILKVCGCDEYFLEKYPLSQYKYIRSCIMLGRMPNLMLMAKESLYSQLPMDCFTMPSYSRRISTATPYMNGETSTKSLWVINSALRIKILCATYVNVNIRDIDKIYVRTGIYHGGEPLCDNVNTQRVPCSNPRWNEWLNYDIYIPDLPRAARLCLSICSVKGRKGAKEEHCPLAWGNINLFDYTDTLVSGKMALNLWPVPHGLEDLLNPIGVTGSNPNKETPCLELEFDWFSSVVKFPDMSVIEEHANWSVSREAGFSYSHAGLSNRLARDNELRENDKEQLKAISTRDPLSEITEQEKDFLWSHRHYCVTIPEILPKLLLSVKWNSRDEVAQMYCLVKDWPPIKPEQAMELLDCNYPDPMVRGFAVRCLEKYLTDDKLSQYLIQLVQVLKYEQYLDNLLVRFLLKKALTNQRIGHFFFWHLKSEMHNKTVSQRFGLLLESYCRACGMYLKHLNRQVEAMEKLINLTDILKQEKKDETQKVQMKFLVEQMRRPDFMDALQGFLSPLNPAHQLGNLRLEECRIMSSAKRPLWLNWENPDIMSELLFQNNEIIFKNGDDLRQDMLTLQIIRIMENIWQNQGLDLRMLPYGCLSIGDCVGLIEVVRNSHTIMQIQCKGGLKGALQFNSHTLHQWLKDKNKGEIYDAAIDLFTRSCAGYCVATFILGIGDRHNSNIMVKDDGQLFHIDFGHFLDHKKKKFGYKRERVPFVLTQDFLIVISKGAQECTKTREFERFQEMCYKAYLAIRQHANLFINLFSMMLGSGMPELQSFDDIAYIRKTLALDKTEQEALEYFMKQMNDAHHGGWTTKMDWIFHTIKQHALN
T1 sequence (P27986 whole entry partner, canonical isoform): as the sequence (P27986 whole entry partner, canonical isoform) above

Structure (SMILES)	IC50 [1] [µM]	IC50 [2] [µM]	IC50 [3] [µM]	IC50 [4] [µM]	protection from lethal challenge [5]	viral replication in A549 lung epithelial cells [6]
Cc1ccccc1-c1nc2ncccc2cc1Cn1cnc2c(N)ncnc21 [compound 7b, 9-((2-(2-methylphenyl)-1,8-naphthyridin-3-yl)methyl)-9H-purin-6-amine]	> 100	40	> 100	1.3		
Cc1ccccc1-n1c(Cn2cnc3c(N)ncnc32)nc2cccc(C)c2c1=O [IC87114]					protected animals from lethal challenge	decreased
